Columns and labels:
[1] = system: primary human ciliary muscle cells (h-CM); test: Total prostaglandin (PG) release from primary h-CM cells (EIA); type: cell-based; conditions: 1 hour at 37° C., class symbols (in μM)
Method: BK agonist compounds of Formula 1 were evaluated for the ability to induce prostaglandin (PG) release from primary human ciliary muscle cells (h-CM). Briefly, h-CM cells were grown to confluence in FNC-coated 24-well culture plates and serum-starved (0.8% FBS) for 24 hours prior to the experiment. Cells were stimulated with a 9-pt concentration-response (0.1 nM-10 μM) of bradykinin or BK agonist for 1 hour at 37° C. with subsequent sample recovery and processing for total PG measurement. Total PG measurement was determined using a total Prostaglandin Screening EIA kit (cat#514012) purchased from Cayman Chemical (Ann Arbor, Mich.). The assay was conducted according to the package insert from the manufacturer.

[2] = biological target: T1, recombinant human bradykinin B2 receptor (Homo sapiens, UniProt P30411); test: [3H]-BK competition radioligand binding to human cloned B2 receptor (CHO cell membranes); conditions: 0.2 nM [3H]-bradykinin, CHO membranes, 60 min 23° C.; mean ± SEM or single value; Ki from IC50 by Cheng-Prusoff; read-out: [3H]-BK Binding to Human Cloned B2 Receptor (Ki)
T1 construct: expressed in transfected cells; host or cells: Chinese hamster ovary (CHO) cells, membrane homogenates
T1 sequence (P30411 1-391): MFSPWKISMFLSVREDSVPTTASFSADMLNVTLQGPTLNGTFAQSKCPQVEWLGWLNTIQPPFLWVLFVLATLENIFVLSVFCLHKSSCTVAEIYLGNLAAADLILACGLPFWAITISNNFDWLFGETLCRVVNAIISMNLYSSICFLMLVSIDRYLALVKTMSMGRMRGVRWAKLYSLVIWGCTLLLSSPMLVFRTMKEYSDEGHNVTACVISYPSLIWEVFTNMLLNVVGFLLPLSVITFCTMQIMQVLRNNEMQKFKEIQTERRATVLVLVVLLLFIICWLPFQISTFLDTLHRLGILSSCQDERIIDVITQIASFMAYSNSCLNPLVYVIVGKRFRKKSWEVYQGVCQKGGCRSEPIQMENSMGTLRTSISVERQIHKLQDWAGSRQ
Method: Chinese hamster ovary (CHO) cell membrane homogenates (2.5 μg protein) expressing the recombinant human bradykinin B2 receptor were incubated for 60 min at 23° C. with 0.2 nM [^3H]-bradykinin (95.5 Ci/mmole, PerkinElmer) in the absence or presence of the test compound in a buffer containing 50 mM Tris/HCl (pH 7.4), 0.2 g/L 1-10-phenanthroline and 0.1% BSA. All reagent and test compound additions to the assay plates were made using Biomek 3000 robotic workstations (Beckman Instruments, Fullerton, Calif.). Nonspecific binding was determined in the presence of 1 μM unlabeled bradykinin. Following the incubation, the assay was terminated by rapid filtration under vacuum through glass fiber filters (GF/C, PerkinElmer) presoaked with 0.3% polyethyleneimine and rinsed several times with an ice-cold 50 mM Tris-HCl buffer using a 96-sample cell harvester (Tomtec). The filters were air-dried and the radioactivity counted in a beta-scintillation counter (Topcount, PerkinElmer) using a scintillation cocktail (Microscint 20, PerkinElmer) (Sharif and Whiting, Neurochem. Int. 18: 89-96, 1991). Competitive binding inhibition curves were generated using a 7-point concentration—response of test compound in duplicate. Bradykinin peptide was also tested as an internal control in the assay. The data were analyzed using nonlinear, iterative curve-fitting to obtain the potency and intrinsic activities of the test agents as previously described (Sharif et al. J. Pharmacol. Exp. Ther. 286: 1094-1102, 1998; Sharif et al. Invest Ophthalmol. Vis. Sci. 39:2562-2571, 1998; Kelly et al. J. Pharmacol. Exp. Ther. 304: 238-245, 2003). Determined IC50 values were converted to Ki values using the standard Cheng-Prusoff equation.

[3] = biological target: T2, BK receptors in human ciliary muscle cells (h-CM) (Homo sapiens, UniProt P30411); test: Functional assay measuring [Ca2+]i mobilization (FLIPR) in h-CM cells; type: cell-based; conditions: class symbols (in μM), read-out: CaM (EC50)
T2 construct: h-CM cells expressing BK receptors were seeded; endogenous in cells; host or cells: human ciliary muscle (h-CM) cells
T2 sequence (P30411 1-391): T1 sequence (P30411 1-391)
Method: On the day of the experiment, media was removed, cells were rinsed and 50 μL of serum-free media added. One vial of FLIPR Calcium Assay Kit dye was reconstituted in 50 mL of a FLIPR buffer consisting of Hank's Balanced Salt Solution (HBSS), 20 mM HEPES, and 2.5 mM probenecid, pH 7.4. Cells were loaded with the calcium-sensitive dye by addition of an equal volume (50 μL) to each well of the 96-well plate and incubated with dye for 1 h at 23° C. […] After this time, the test compound plate and cell plate were placed in a Fluorescence Imaging Plate Reader (FLIPR-Tetra®) instrument (Molecular Devices/MDSPharma, Sunnyvale, Calif.). At the beginning of an experimental run, a signal test was performed to check the basal fluorescence signal from the dye-loaded cells and the uniformity of the signal across the plate. […] An aliquot (25 μL) of the test compound was added to the existing 100 μL dye-loaded cells at a dispensing speed of 50 μL/sec. Intracellular calcium mobilization was measured by monitoring real-time changes in cellular fluorescence upon test compound addition. Fluorescence data were collected in real-time at 1.0 sec intervals for the first 60 seconds and at 6.0 second intervals for an additional 120 seconds. Baseline fluorescence readings were normalized across the plate and background-corrected from negative control wells. […] EC50 values were determined by 4-parameter nonlinear curve fitting of the concentration-response curve. Calibration of the instrument was performed using manufacturer's standard procedures.

EC50 ([1]; Homo sapiens, 1 h) [µM] | Ki [2] [nM] | EC50 [3] [µM] | EC50 [1] [µM] | Molecule
< 0.1 | 77 | < 0.1 |  | COc1nc2c(OCc3c(Cl)ccc(N(C)C(=O)CNC(=O)[C@H]4CCN(C(=O)OC(C)(C)C)C4)c3Cl)cccc2n1Cc1ccccn1 [Compound 34, (S)-tert-butyl 3-(2-((2,4-dichloro-3-((2-methoxy-1-(pyridin-2-ylmethyl)-1H-benzo[d]imidazol-4-yloxy)methyl)phenyl)(methyl)amino)-2-oxoethylcarbamoyl)pyrrolidine-1-carboxylate]
0.1 to 1 | 11 | 0.1 to 1 |  | CNC(=O)c1ccc(CCC(=O)NCC(=O)N(C)c2ccc(Cl)c(COc3cccc4c(OCc5ccccn5)cc(C)nc34)c2Cl)cn1 [Compound 27, 5-(3-((2-((2,4-dichloro-3-(((2-methyl-4-(pyridin-2-ylmethoxy)quinolin-8-yl)oxy)methyl)phenyl)(methyl)amino)-2-oxoethyl)amino)-3-oxopropyl)-N-methylpicolinamide]
0.1 to 1 | 171 ± 97 | < 0.1 |  | CNC(=O)N1CCC(N2CCC(C(=O)NCC(=O)N(C)c3ccc(Cl)c(COc4cccc5c4nc(OC)n5Cc4ccccn4)c3Cl)C2)C1 (stereo not shown) [Compound 24, N3-(2-((2,4-dichloro-3-((2-methoxy-1-(pyridin-2-ylmethyl)-1H-benzo[d]imidazol-4-yloxy)methyl)phenyl)(methyl)amino)-2-oxoethyl)-N1′-methyl-1,3′-bipyrrolidine-1′,3-dicarboxamide]
> 1 | 205 | < 0.1 |  | CNC(=O)c1ccc(CCC(=O)NCC(=O)N(C)c2ccc(Cl)c(COc3cccc4c3nc(OC)n4Cc3nccn3C)c2Cl)cc1 [Compound 82]
0.1 to 1 | 194 | < 0.1 |  | CNC(=O)c1ncc(CCC(=O)NCC(=O)N(C)c2ccc(Cl)c(COc3cccc4c3nc(OC)n4Cc3ccccn3)c2Cl)cn1 [Compound 42, 5-(3-((2-((2,4-dichloro-3-(((2-methoxy-1-(pyridin-2-ylmethyl)-1H-benzo[d]imidazol-4-yl)oxy)methyl)phenyl)(methyl)amino)-2-oxoethyl)amino)-3-oxopropyl)-N-methylpyrimidine-2-carboxamide]
< 0.1 | 118 ± 2 | < 0.1 |  | CNC(=O)N1CCN(CCC(=O)NCC(=O)N(C)c2ccc(Cl)c(COc3cccc4c3nc(OC)n4Cc3ccccn3)c2Cl)CC1 [Compound 7, 4-(3-((2-((2,4-dichloro-3-(((2-methoxy-1-(pyridin-2-ylmethyl)-1H-benzo[d]imidazol-4-yl)oxy)methyl)phenyl)(methyl)amino)-2-oxoethyl)amino)-3-oxopropyl)-N-methylpiperazine-1-carboxamide]
 |  | < 0.1 | 0.1 to 1 | 4-(3-((2-((2,4-dichloro-3-(((2-methyl-4-(pyridin-2-ylmethoxy)quinolin-8-yl)oxy)methyl)phenyl)(methyl)amino)-2-oxoethyl)amino)-3-oxopropyl)-N-methylbenzamide [Compound 31]
< 0.1 |  | < 0.1 |  | CNC(=O)c1ccc(CCC(=O)NCC(=O)N(C)c2ccc(Cl)c(COc3cccc4c3nc(OC)n4Cc3cn(C)cn3)c2Cl)cc1 [Compound 78, 4-(3-((2-((2,4-dichloro-3-(((2-methoxy-1-((1-methyl-1H-imidazol-4-yl)methyl)-1H-benzo[d]imidazol-4-yl)oxy)methyl)phenyl)(methyl)amino)-2-oxoethyl)amino)-3-oxopropyl)-N-methylbenzamide]
< 0.1 |  | < 0.1 |  | COc1nc2c(OCc3c(Cl)ccc(N(C)C(=O)CNC(=O)CCc4ccc(C(=O)NCCO)nc4)c3Cl)cccc2n1Cc1cn(C)cn1 [Compound 85]
0.1 to 1 |  | < 0.1 |  | COc1nc2c(OCc3c(Cl)ccc(N(C)C(=O)CNC(=O)CN4CCC(NC(C)=O)C4)c3Cl)cccc2n1Cc1ccccn1 (stereo not shown) [Compound 66]
< 0.1 |  | < 0.1 |  | CNC(=O)c1ccc(CCC(=O)NCC(=O)N(C)c2ccc(Cl)c(COc3cccc4c3nc(OC)n4Cc3ccccn3)c2Cl)nc1 [Compound 43, 6-(3-((2-((2,4-dichloro-3-(((2-methoxy-1-(pyridin-2-ylmethyl)-1H-benzo[d]imidazol-4-yl)oxy)methyl)phenyl)(methyl)amino)-2-oxoethyl)amino)-3-oxopropyl)-N-methylnicotinamide]
> 1 |  | < 0.1 |  | COc1nc2c(OCc3c(Cl)ccc(N(C)C(=O)CNC(=O)CCc4ccc(N)nc4)c3Cl)cccc2n1Cc1ccccn1 [Compound 67]
 |  | 0.1 to 1 | 0.1 to 1 | 5-(3-((2-((2,4-dichloro-3-(((2-methyl-4-((pyridin-2-ylmethyl)amino)quinolin-8-yl)oxy)methyl)phenyl)(methyl)amino)-2-oxoethyl)amino)-3-oxopropyl)-N-methylpicolinamide [Compound 49]
< 0.1 |  | 0.1 to 1 |  | CNC(=O)c1ccc(CCC(=O)NCC(=O)N(C)c2ccc(Cl)c(COc3cccc4c(OCc5ccccc5F)cc(C)nc34)c2Cl)cn1 [Compound 47, 5-(3-((2-((2,4-dichloro-3-(((4-((2-fluorobenzyl)oxy)-2-methylquinolin-8-yl)oxy)methyl)phenyl)(methyl)amino)-2-oxoethyl)amino)-3-oxopropyl)-N-methylpicolinamide]
0.1 to 1 |  | < 0.1 |  | CNC(=O)c1ccc(CCC(=O)NCC(=O)N(C)c2ccc(Cl)c(COc3cccc4c(OCc5cn(C)cn5)cc(C)nc34)c2Cl)cn1 [Compound 48, 5-(3-((2-((2,4-dichloro-3-(((2-methyl-4-((1-methyl-1H-imidazol-4-yl)methoxy)quinolin-8-yl)oxy)methyl)phenyl)(methyl)amino)-2-oxoethyl)amino)-3-oxopropyl)-N-methylpicolinamide]
< 0.1 |  | 0.1 to 1 |  | CCOC(=O)COc1cc(C)nc2c(OCc3c(Cl)ccc(N(C)C(=O)CNC(=O)CCc4ccc(C(=O)NC)nc4)c3Cl)cccc12 [Compound 46, ethyl 2-((8-((2,6-dichloro-3-(N-methyl-2-(3-(6-(methylcarbamoyl)pyridin-3-yl)propanamido)acetamido)benzyl)oxy)-2-methylquinolin-4-yl)oxy)acetate]
> 1 |  | 0.1 to 1 |  | CNC(=O)C1CCN(CC(=O)NCC(=O)N(C)c2ccc(Cl)c(COc3cccc4c3nc(OC)n4Cc3ccccn3)c2Cl)CC1 [Compound 13, 1-(2-((2-((2,4-dichloro-3-(((2-methoxy-1-(pyridin-2-ylmethyl)-1H-benzo[d]imidazol-4-yl)oxy)methyl)phenyl)(methyl)amino)-2-oxoethyl)amino)-2-oxoethyl)-N-methylpiperidine-4-carboxamide]

From patent US8252793B2, “Bradykinin receptor agonists and uses thereof to treat ocular hypertension and glaucoma” (Alcon Research, Ltd., priority 2010, dated 2012)
